Results reported in patent publication US20220332695A1, “UREA DERIVATIVES AS CB1 ALLOSTERIC MODULATORS” (RTI INTERNATIONAL, priority 2019, published 2022).
In brackets after ≈: the same amount, converted by molar mass. Entries after “also recorded” stand apart in the source; their conditions may differ. Like-named read-outs stand apart in the source and are kept apart here.

Tests used:
hCB1R [1] = molecular target: T1, hCB1R (Homo sapiens, UniProt P21554); assay: Real-time BRET CAMYEL cAMP assay in HEK293 cells expressing human CB1; format: cell-based; set-up: expressed in transfected cells; host or cells: HEK293 cells stably transfected with human CB1, transiently transfected with pcDNA3L-His-CAMYEL sensor; details: [CP] = 100 nM; forskolin-stimulated cAMP
Procedure: cAMP Assay: The cAMP assay was performed as previously described. […] Briefly, forskolin (FSK)-stimulated cyclic adenosine monophosphate (cAMP) production was measured in real-time using a transfected bioluminescence resonance energy transfer (BRET) cAMP sensor. The plasmid encodes a cAMP binding domain (Epac1) flanked by yellow fluorescent protein (YFP) and Renilla Luciferase (RLuc) assay, the latter of which can oxidize coelenterazine H and produce a photon as a byproduct. When cAMP is bound to the Epac1 domain, it separates RLuc and YFP so only Rluc emits a photon at a wavelength of 460 nm. When cAMP is not bound, RLuc can excite YFP, emitting light at wavelength 535 nm. A plate reader measures both wavelengths and their ratio, 460/535, is calculated to quantify cAMP levels where increases in the ratio indicate increases in cAMP. Human Embryonic Kidney 293 (HEK293) cells stably transfected with the human cannabinoid type-1 (C131) were maintained at 37° C. at 5% CO2 and seeded in 100 mM dishes for transfection. The next day, cells were given fresh growth media and transfected with 5 pg of pcDNA3L-His-CAMYEL using linear polyethyleneimine (25 kDa, Polysciences, Warrington, Pennsylvania, United States of America) in 1:6 DNA:PEI (ATCC, Manassas, Virginia, United States of America) ratio. The next day, cells were lifted using 1 mM EDTA in PBS and spun down at 200xg for 5 min. The supernatant was removed, and cells were resuspended in growth media and plated on poly-D-lysine (Sigma Aldrich, St. Louis, Missouri, United States of America) coated white 96 well plates at 60,000 cells per well, filling 2 columns of 8 wells each per plate, i.e. 8 samples in duplicate per plate (Perkin Elmer, Waltham, Massachusetts,
United States of America). The following day, media was removed, cells were rinsed with PBS and buffers/reagents/drugs added as following: At 0 min, 175 of stimulation buffer (5 mg/ml bovine serum albumin in HBSS including Ca^2+ and Mg^2+); at 10 min, 25 μL of allosteric modulators added; at 15 min: 25 μL coelenterazine added (5 μM final); at 25 min, 25 μL of forskolin (10 final) with or without CP55,940 (100 nM final) added. […] Ratio of 460/535 is calculated for each time point and plotted across time and area under the curve analysis is conducted for each replicate and averaged by condition/day where each day serves as an independent experiment. Data were calculated as %FSK using the formula [(sample-basal)/(forskolin-basal)×100]. IC50 values were calculated from these normalized concentration-response data using Prism 6 (Graphpad Software, San Diego, Calif., United States of America) using 3 parameter non-linear regression. Data are plotted as mean of at least N=3 independent experiments either normalized to forskolin (concentration response data) or the calculated 460/535 BRET ratio (time course data).

[2] = Kinetic solubility assessment; format: physicochemical; details: phosphate buffer, 2 hours room temperature
Procedure: The solution was agitated on a VX-2500 multi-tube vortexer (VWR International, Radnor, Pa., United States of America) for 2 hours at room temperature. Following agitation, the sample was filtrated on a glass-fiber filter (1 μm) and the eluate was diluted 400-fold with a mixture of acetonitrile: water (1:1). On each experimental occasion, nicardipine and imipramine were assessed as reference compounds for low and high solubility, respectively. All samples were assessed in triplicate and analyzed by LC-MS/MS using electrospray ionization against standards prepared in the same matrix.

MDCK-MDR1 cells = assay: Bidirectional MDCK-MDR1 permeability assay; format: in vitro ADME
Procedure: (§1) Permeability Assessment. Bidirectional MDCK-MDR1 permeability assay was performed by Paraza Pharma Inc. (Montreal, Canada). MDCK-mdr1 cells at passage 5 were seeded onto permeable polycarbonate supports in 12-well Costar Transwell plates and allowed to grow and differentiate for 3 days. On day 3, culture medium (DMEM supplemented with 10% FBS) was removed from both sides of the transwell inserts and cells were rinsed with warm HBSS. After the rinse step, the chambers were filled with warm transport buffer (HBSS containing 10 mM HEPES, 0.25% BSA, pH 7.4) and the plates were incubated at 37° C. for 30 min prior to TEER (Trans Epithelial Electric Resistance) measurements.
(§2) The buffer in the donor chamber (apical side for A-to-B assay, basolateral side for B-to-A assay) was removed and replaced with the working solution (10 μM test article in transport buffer). The plates were then placed at 37° C. under light agitation. At designated time points (30, 60 and 90 min), an aliquot of transport buffer from the receiver chamber was removed and replenished with fresh transport buffer. Samples were quenched with ice-cold ACN containing internal standard and then centrifuged to pellet protein. Resulting supernatants are further diluted with 50/50 ACN/H2O (H2O only for Atenolol) and submitted for LC-MS/MS analysis. Reported apparent permeability (Papp) values were calculated from single determination.
(§3) Atenolol and propranolol were tested as low and […] permeability references.
(§4) The apparent permeability (Papp, measured in cm/s) of a compound is determined according to the following formula […]: […]
(§5) where dQ/dt is the net rate of appearance in the receiver compartment; A is the area of the Transwell measured in cm^2 (1.12 cm^2); Ci is the initial concentration of compound added to the donor chamber; and 60 is the conversion factor for minute to second.

hCB1R [3] = molecular target: T1, hCB1R; assay: [35S]GTPγS binding assay in HEK cells stably expressing human CB1R; format: biochemical; set-up: expressed in transfected cells; host or cells: HEK (HEK293) cells, membranes; details: [CP] = 100 nM, mean (95% confidence interval), read-out: hCB1R [35S]GTPγS binding assay IC50
Procedure: (§6) [^35S]GTPγS Binding Assay: For receptor signaling, membranes (10 μg protein) from either ICR mouse cerebellum mice (6-8 weeks old; Enviga
(§7) Non-specific binding was determined by adding 30 μM unlabeled GTPyS. Concentration response curves for allosteric modulators were conducted in the presence of CP55,940 (100 nM or 1 μM) to calculate 1050 values.
(§8) For [^35S]GTPyS experiments, data were normalized to maximal CP55,940 (100 nM) stimulation in the absence of test compound (i.e., vehicle=100%).

[4] = Metabolic stability in rat liver microsomes; format: in vitro ADME
Procedure: Metabolic stability assessment: Compounds were incubated with rat liver microsomes at 37° C. for a total of 45 minutes. The reaction was performed at pH 7.4 in 100 mM potassium phosphate buffer containing 0.5 mg/mL of rat liver microsomal protein. Phase I metabolism was assessed by adding NADPH to a final concentration of 1 mM and collecting samples at time points 0, 5, 15, 30 and 45 minutes. All collected samples were quenched 1:1 with ice-cold stop solution (1 μM labetalol and 1 μM glyburide in acetonitrile) and centrifuged to remove precipitated protein. Resulting supernatants were further diluted 1:4 with acetonitrile:water (1:1). Samples were analyzed by LC/MS/MS and calculations for half-life, and in-vitro clearance were accomplished using Microsoft Excel (2007).

locomotion in rats [5] = assay: Locomotion in rats; details: rat, 10 mg/kg i.p.
Excerpt: (§9) Locomotion is presented as total distance (in millimeters (mm)) versus time (in minutes) after administration. The effects of treatment with vehicle is also shown as a control.

hCB1R [6] = molecular target: T1, hCB1R; assay: Intrinsic activity: basal [35S]GTPγS binding in the absence of CP55,940; format: biochemical; details: up to 10 μM
hCB1R [7] = molecular target: T1, hCB1R; assay: Calcium mobilization assay, antagonist mode against CP55,940; format: cell-based; set-up: expressed in transfected cells; host or cells: CHO-RD-HGA16 cells (parental line from Molecular Devices)
Procedure: Calcium Mobilization Assay: CHO-RD-HGA16 cells (Molecular Devices, San Jose, Calif., United States of America) stably expressing the human CB1 receptor were plated into 96-well black-walled assay plates at 25,000 cells/well in 100 pL of Ham's F12 (supplemented with 10% fetal bovine serum, 100 units of penicillin/streptomycin, and 100 µg/mL Normocin) and incubated overnight at 37° C., 5% CO2. Calcium 5 dye (Molecular Devices, San Jose, Calif., United States of America) was reconstituted according to the manufacturer's instructions. The reconstituted dye was diluted 1:40 in prewarmed (37° C.) assay buffer (1x HBSS, 20 mM HEPES, 2.5 mM probenecid, pH 7.4 at 37° C.). Growth medium was removed, and the cells were gently washed with 100 pL of prewarmed (37° C.) assay buffer. The cells were incubated for 45 min at 37° C., 5% CO2 in 200 pL of the diluted Calcium 5 dye solution. […] Serial dilutions of the test compounds were prepared at 10x the desired final concentration in 2.25% BSA/4.5% DMSO/4.5% EtOH/assay buffer. After the dye loading incubation period, the cells were pretreated with 25 pL of the test compound serial dilutions and incubated for 15 min at 37° C. After the pretreatment incubation period, the plate was read with a FLIPR Tetra (Molecular Devices, San Jose, Calif., United States of America). Calcium-mediated changes in fluorescence were monitored every 1 s over a 90 s time period, with the Tetra adding 25 pL of the CP55,940 EC80 concentration at the 10s time point (excitation/emission: 485/525 nm). Relative fluorescence units (RFU) were plotted against the log of compound concentrations. For agonist screens, the above procedure was followed except that cells were pretreated with 2.25% BSA/4.5% DMSO/4.5% EtOH/assay buffer and the Tetra added single concentration dilutions of the test compounds prepared at 10x the desired final concentration in 0.25% BSA/0.5% DMSO/0.5% EtOH/assay buffer. Test compound RFUs were compared to the CP55,940 Emax RFUs to generate % Emax values.
Data Analysis: For calcium mobilization experiments, data were fit to a three-parameter logistic curve to generate IC50 values (GraphPad Prism 6.0, Graphpad Software, San Diego, Calif., United States of America).

mouse CB1R = molecular target: T2, mouse CB1R (Mus musculus, UniProt P47746); assay: [35S]GTPγS binding assay in mouse cerebellum membranes; format: biochemical
T2 construct: membranes (10 μg protein) from either ICR mouse cerebellum mice; from tissue; host or cells: cerebellum membranes of ICR mice
Procedure: as §6, §7, §8
Select compounds were evaluated in the CP55,940-induced [^35S]GTPyS binding assays using mouse cerebellum membrane at two CP55,940 concentrations, 100 nM and 1μM.

[8] = system: cocaine-seeking behavior in rats; assay: Cocaine-induced reinstatement of extinguished cocaine-seeking behavior; format: in vivo, male Sprague-Dawley rats; details: rat, 10 mg/kg i.p. pretreatment
Procedure: In both graphs, the effect of treatment with vehicle (unfilled bars) is shown as a control. *p<0.05.
Adult male Sprague-Dawley rats (Harlan, Indianapolis, Ind., United States of America) weighing 280-300 g were used in the study. Animals were housed individually on a 12/12 hr light/dark cycle (behavioral experiments were conducted during the light period) with free access to water and food except during experimental sessions.
The reinstatement procedure has been previously described. See Jing et al., Drug Alcohol Depend. 2014, 143, 251-256; and Thorn et al., Neuropsychopharmacology 2014, 39, 2309-2316. Briefly, rats were surgically implanted with a chronic indwelling jugular catheter. […]
Data analyses: Data are expressed as mean ±S.E.M. Differences in active lever responding between the last extinction session and reinstatement session were determined with paired t tests (within subjects comparison). The effects of compounds 2 on reinstatement were analyzed by a one-way analysis of variance (ANOVA) followed by post hoc Bonferroni's test (between subjects comparison). The effects of compounds 34 on reinstatement was analyzed by Student's t test. […]

P-gp (MDR1) = assay: Bidirectional MDCK-MDR1 permeability assay; format: in vitro ADME; details: dog, pH 7.4; MDCK-MDR1, 10 μM test article
Procedure: as §1, §2, §3, §4, §5

locomotion in rats [9] = details: rat, in vivo, ip, 10 mg/kg
Excerpt: as §9

T1 sequence (P21554 whole entry): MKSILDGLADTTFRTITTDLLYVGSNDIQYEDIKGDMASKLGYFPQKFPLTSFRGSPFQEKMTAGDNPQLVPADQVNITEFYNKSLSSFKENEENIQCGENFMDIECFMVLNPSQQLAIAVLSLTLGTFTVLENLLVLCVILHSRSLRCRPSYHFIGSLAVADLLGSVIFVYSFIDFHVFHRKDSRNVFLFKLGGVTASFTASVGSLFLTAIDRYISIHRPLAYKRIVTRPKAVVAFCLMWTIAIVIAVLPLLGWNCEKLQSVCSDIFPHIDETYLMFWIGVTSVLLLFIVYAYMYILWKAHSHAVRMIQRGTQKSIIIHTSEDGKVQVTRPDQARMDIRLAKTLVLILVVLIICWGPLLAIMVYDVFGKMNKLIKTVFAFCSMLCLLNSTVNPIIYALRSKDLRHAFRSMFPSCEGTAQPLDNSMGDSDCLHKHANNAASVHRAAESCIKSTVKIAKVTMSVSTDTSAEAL
T2 sequence (P47746 whole entry): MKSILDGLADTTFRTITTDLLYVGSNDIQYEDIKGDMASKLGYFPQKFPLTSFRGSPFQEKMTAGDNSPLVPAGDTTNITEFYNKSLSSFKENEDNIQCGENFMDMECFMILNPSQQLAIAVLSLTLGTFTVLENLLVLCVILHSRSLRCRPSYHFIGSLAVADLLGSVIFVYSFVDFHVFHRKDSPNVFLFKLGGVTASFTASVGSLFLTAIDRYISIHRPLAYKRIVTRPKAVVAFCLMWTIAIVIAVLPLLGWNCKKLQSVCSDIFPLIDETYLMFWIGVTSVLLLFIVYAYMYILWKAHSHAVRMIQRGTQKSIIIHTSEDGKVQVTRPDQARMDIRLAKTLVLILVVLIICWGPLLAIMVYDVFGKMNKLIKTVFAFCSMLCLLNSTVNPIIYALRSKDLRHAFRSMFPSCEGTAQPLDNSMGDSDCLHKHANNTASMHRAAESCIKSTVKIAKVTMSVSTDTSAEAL

Row | SMILES | IC50 (hCB1R [1]) [nM] | solubility at 2 h [2] [µM] | Efflux BA/AB (MDCK-MDR1 cells; MDCK-MDR1) | Papp A to B (MDCK-MDR1 cells; MDCK-MDR1, 10 μM test article) | Papp B to A (MDCK-MDR1 cells; MDCK-MDR1, 10 μM test article) | IC50 (hCB1R [3]) [nM] | Clearance ([4]; mean ± SD) [µL/min/mg] | effect on locomotion (locomotion in rats [5]) | inverse agonism (in words) (hCB1R [6]) | IC50 (hCB1R [7]; CHO cells expressing human CB1R, against CP55,940 (100 nM), mean ± SEM, read-out: hCB1R Calcium assay IC50) [nM] | IC50 (mouse CB1R; mouse cerebellum membrane, [CP] = 100 nM, read-out: mCB1R GTPγS IC50) [nM] | effect on cocaine-induced reinstatement of cocaine-seeking behavior [8] | solubility at 2 h ([2]; aqueous buffer, kinetic from dmso stock) [µM] | Papp A→B at 90 min, 10 µM (P-gp (MDR1)) [×10⁻⁶ cm/s] | Papp B→A at 90 min, 10 µM (P-gp (MDR1)) [×10⁻⁶ cm/s] | effect on locomotion (locomotion in rats [9]) | half-life ([4]; pH 7.4, NADPH, mean ± SD, read-out: Half-life) [min] | microsomal CLint ([4]; pH 7.4, mean ± SD, read-out: Clearance) [µL/min/mg] | IC50 (hCB1R [7]) [nM] | IC50 (mouse CB1R; Tables 4-6, CP55,940 concentration not stated, mean (95% confidence interval), read-out: mCB1R [35S]GTPγS binding assay IC50) [nM]
1 | O=C(Nc1ccc(Cl)cc1)Nc1ccc(-c2ccccc2)s1 [Compound 11, 1-(4-Chlorophenyl)-3-(5-phenylthiophen-2-yl)urea] | 1760 | 1.5 (≈ 0.493 µg/mL) | 0.7 | 1.6 ± 0.1 ×10^−6 cm/s | 1.1 ± 0.4 ×10^−6 cm/s | 524 | 22.2 ± 6.5 | significant reduction of locomotion | some degree of inverse agonism; also recorded: very little inverse agonism | 7 | 63 | – | – | – | – | – | – | – | – | –
2 | O=C(NCCc1cccc(Cl)c1)Nc1ccc(Cl)cc1 [Compound 68, 3-(4-Chlorophenyl)1-[2-(3-chlorophenyl)ethyl]urea] | – | – | – | – | – | – | – | – | – | – | – | good in vivo efficacy; also recorded: attenuated cocaine-induced reinstatement of cocaine-seeking behavior | < 0.5 | > 15 | > 15 | did not affect locomotion | 9.6 | 144 ± 8.4 | 30 ± 4 | 561
